Key:
[1] = molecular target: T1, H-2Db (Mus musculus, UniProt P01899); test: Presentation of IGRP peptide by MHC class I molecule
T1 sequence (P01899 25-362): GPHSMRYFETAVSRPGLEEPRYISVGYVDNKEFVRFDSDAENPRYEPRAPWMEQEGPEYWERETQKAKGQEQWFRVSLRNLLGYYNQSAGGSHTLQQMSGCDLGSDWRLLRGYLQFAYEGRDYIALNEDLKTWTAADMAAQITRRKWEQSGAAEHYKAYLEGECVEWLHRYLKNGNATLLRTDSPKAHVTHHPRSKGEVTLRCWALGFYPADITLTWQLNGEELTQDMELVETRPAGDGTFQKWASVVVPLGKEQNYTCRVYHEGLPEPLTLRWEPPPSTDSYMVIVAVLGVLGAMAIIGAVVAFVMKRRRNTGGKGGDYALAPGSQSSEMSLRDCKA
T1 sequence (P01887 21-119 partner): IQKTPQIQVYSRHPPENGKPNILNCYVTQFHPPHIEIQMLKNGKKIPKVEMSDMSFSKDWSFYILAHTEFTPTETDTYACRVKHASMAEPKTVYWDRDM

[2] = tested on: T-cells from the islets of 12-week-old female NOD mice; test: Interferon-γ ELISpot of T-cells cultured from NOD islets (Example 4); format: cell-based, mouse
Description: Using procedures described in Example 1, we have cultured T-cells from the islets of 12-week-old female NOD mice. T-cells were assayed for recognition of several different IGRP peptides by interferon-γ ELISpot.

[3] = tested on: 8.3-CD8+ splenocytes of 8.3-NOD mice; test: Tolerogenic activity of APLs in 8.3-NOD mice; format: in vivo, mouse; settings: single injection 100 μg in PBS, analysis 7 days later
Description: (§1) Cohorts of 3-to-4 week-old female NOD mice were injected with 1-100 μg of peptide in PBS intraperitoneally. This was repeated every 2 weeks until the 7-8th week, and every 3 weeks thereafter. Mice were monitored for development of hyperglycemia until at least the 28th week of age. The 8.3-CD8+ T-cell tolerogenic activity of APLs was determined by treating 8-15 wk-old 8.3-NOD mice with one i.p. injection of 100 μg of peptide. […] Mice were sacrificed a week after treatment, and their spleens analyzed for presence of 8.3-CD8+ T-cells by flow cytometry.

[4] = tested on: female NOD mice; test: Repeated peptide treatment of female NOD mice, diabetes development and islet-associated CD8+ T-cells; format: in vivo, mouse
Description: as §1
We next investigated whether the anti-diabetogenic activity of the above APLs was a function of “avidity”, as defined not only by the affinity of individual peptide/MHC complexes for specific TCRs, but also by the absolute number of peptide/MHC complexes that are available for recognition (i.e. dose of peptide). This was done by treating cohorts of female NOD mice with repeated injections of TUM (negative control), NRP-I4, NRP-A7 and NRP-V7 (in PBS) over a wide dose range, and by following the mice for development of diabetes (FIG. 7A, top). Starting at 3-4 weeks of age, mice received one injection of peptide i.p. every 2 (first three doses) or 3 weeks after initiation of treatment. Mice were sacrificed at diabetes onset or at the end of the follow-up period (28-32 weeks), to investigate the effects of treatment on the size and tetramer-binding avidity of the islet-associated IGRP206-214-reactive CD8+ T-cell subpopulation (FIG. 7A, bottom).

[5] = tested on: AI15.F5 TCR; test: TCR transfectant peptide recognition, IL-2 release (58 α−β− cells, RMA-S/K^d presenters); format: cell-based, mouse; settings: FIG. 2
From the text: (§2) T cell receptors from the previously isolated NOD-derived β cell-autoreactive class I MHC-restricted T cell clones AI4, AI12.B1.1, AI12.B1.2, AI12.B1.3, AI15.A10, AI15.F5 (DiLorenzo et al., 1998), and 8.3 (Verdaguer et al., 1997) were expressed in the TCR^− T cell hybridoma 58α^−β^− (engineered to express the TCR ζ chain and CD8αβ and provided by H.-C. Chang, Dana Farber, Boston, Mass., USA) as described (Serreze et al., 2001). TCR expression was verified by flow cytometric analysis of growing clones using an antibody to CD3ε (145-2C11). RMA-S/K^d cells incubated overnight at 28° C. were used to present exogenously added synthetic peptides at concentrations as indicated in the figures. Peptide recognition by the TCR transfectants was measured by IL-2 production as previously described (Serreze et al., 2001).

[6] = tested on: AI12.B1.3 TCR; test: as above; format: cell-based, mouse; settings: FIG. 2
From the text: as §2

[7] = tested on: 8.3-CD8+ T-cells; test: Proliferation and cytokine secretion of naive splenic 8.3-CD8+ T-cells with peptide-pulsed NOD splenocytes; format: cell-based, mouse; settings: FIG. 5, peptide 0.01-1 μM
Description: Naïve or NRP-A7-differentiated (see below) splenic CD8+ T-cells from 8.3-NOD mice (2×10^4/well) were incubated, in duplicate, with peptide-pulsed (0.01, 0.1 and 1 μM), γ-irradiated (3,000 rad) NOD splenocytes (10^5/well) for 3 days at 37° C. in 5% CO2. Cultures were pulsed with 1 μCi of (^3H)-thymidine during the last 18 hours of culture and harvested.
Naïve splenic CD8+ T-cells from 8.3-NOD mice (2×10^4/well) were incubated with peptide-pulsed (0.001, 0.01, 0.1, 1 and/or 10 μM) γ-irradiated NOD splenocytes (10^5/well) in 96-well plates for 48 hours at 37° C. Short-term islet-derived T-cell lines from peptide-treated or unmanipulated NOD mice (adjusted at 2×10^4 CD8+ T-cells/well) were tested the same way, but using 10 μM of peptide. The supernatants (100 μl/well) were assayed in duplicate for IL-2, IL-4, and/or IFN-γ content by ELISA using commercially available kits (Genzyme Diagnostics, Cambridge, Mass.).

In the case of CALTSLTTM [IGRP296-304], the “presentation by MHC class I molecule” value [1] is reported as “is presented by the MHC class I molecule H-2Db”.
For FLWSVFWLI [IGRP152-160], the “T-cell reactivity by interferon-γ ELISpot” value [2] was “Reactivity was found”.
With KYNKANVFL [NRP-V7, reference compound] the “8.3-CD8+ splenocytes after treatment” value [3] was “fewer 8.3-CD8+ splenocytes”, the anti-diabetogenic activity ([4]; any dose) was “not significantly protective” and the “protection from diabetes by chronic treatment (discussion summary)” value ([4]; intermediate doses NRP-A7, high doses NRP-I4, low or high doses NRP-V7, high doses IGRP206-214) was “only afforded marginal protection from disease”. The “NRP-V7-reactive CD8+ cells in the islets” value ([4]; over a range of doses) was “almost completely devoid”, the “recognition by AI15.F5 (IL-2 release)” value [5] was “responded” and the “recognition by AI12.B1.3 (IL-2 release)” value [6] was “recognized”. The “agonistic activity on 8.3-CD8+ T-cells” value [7] was “superior agonistic activity”.
